The nature of data set [1]: Thermal stability measurement (TG/DTA weight reduction temperature). As to conditions: for Weight reduction temperature 5% / Weight reduction temperature 10% / Weight reduction temperature 20%: TG/DTA, air 200 mL/min, 10° C./min, 30° C. to 600° C.; for 5%, 10%, 20% weight reduction temperatures (thermal stability) higher than perfluoropolyether Z-DOL (Comparative Example 11C) by: difference to Z-DOL; for 5%, 10%, 20% weight reduction temperatures (thermal stability) higher than Z-TETRAOL (Comparative Example 12C) by: difference to Z-TETRAOL; for Thermal stability improved compared with perfluoropolyether Z-DOL or Z-TETRAOL by: difference to Z-DOL or Z-TETRAOL.

A short description of data set [2]: Solubility test of ionic liquid in fluorine-based solvent VERTREL XF. The conditions noted are these: for Solubility to fluorine-based solvent: VERTREL XF [CF3(CHF)2CF2CF3], 25° C., ultrasonic 5 minutes, left 1 day, visual; for Dissolved or not in fluorine-based solvent: VERTREL XF.
Experimental: A solubility test was performed on the ionic liquid synthesized each of Examples and each of Comparative Examples using VERTREL XF [CF3(CHF)2CF2CF3] available from Du Pont-Mitsui Fluorochemicals Company, Ltd. as a fluorine-based solvent.
The ionic liquid was added to the predetermined mass of VERTREL XF.
Specifically, 0.5 parts by mass or 0.1 parts by mass of each ionic liquid was added to 100 parts by mass of VERTREL XF (25° C.).
Note that, a case where the mixture was visually observed to be transparent, the ionic liquid was judged as being dissolved. A case where the mixture was not transparent or insoluble matter was observed, the ionic liquid was judged as not being dissolved (insoluble).
The ionic liquid was dissolved when 0.5 parts by mass of the ionic liquid was added.
The ionic liquid was not dissolved when 0.5 parts by mass of the ionic liquid was added, but the ionic liquid was dissolved when 0.1 parts by mass of the ionic liquid was added.
The ionic liquid was not dissolved both when 0.5 parts by mass of the ionic liquid was added and when 0.1 parts by mass of the ionic liquid was added.

A value given as a limit tells only on which side of the number the result lay.

With `CCCCCCCCCCCCCCCCCCn1cc[n+](CCC[n+]2ccn(CCCCCCCCCCCCCCCCCC)c2)c1.O=S(=O)([N-]S(=O)(=O)C(F)(F)C(F)(F)C(F)(F)C(F)(F)F)C(F)(F)C(F)(F)C(F)(F)C(F)(F)F.O=S(=O)([N-]S(=O)(=O)C(F)(F)C(F)(F)C(F)(F)C(F)(F)F)C(F)(F)C(F)(F)C(F)(F)C(F)(F)F`, in data set [1], the “Weight reduction temperature 5%” value stood at 352.3 °C, the “Weight reduction temperature 10%” value is 381.9 °C and the “Weight reduction temperature 20%” value amounted to 401.4 °C.

For the compound `CCCCCCCCCCCCCCCCCCn1cc[n+](CCCCC[n+]2ccn(CCCCCCCCCCCCCCCCCC)c2)c1.O=S(=O)([N-]S(=O)(=O)C(F)(F)C(F)(F)C(F)(F)C(F)(F)F)C(F)(F)C(F)(F)C(F)(F)C(F)(F)F.O=S(=O)([N-]S(=O)(=O)C(F)(F)C(F)(F)C(F)(F)C(F)(F)F)C(F)(F)C(F)(F)C(F)(F)C(F)(F)F`, in data set [1], the “Weight reduction temperature 5%” value stood at 360.1 °C; the “Weight reduction temperature 10%” value is 384.4 °C; the “Weight reduction temperature 20%” value was 402.0 °C; the “5%, 10%, 20% weight reduction temperatures (thermal stability) higher than perfluoropolyether Z-DOL (Comparative Example 11C) by” value is ≥ 170 °C. Further, in data set [1], the “5%, 10%, 20% weight reduction temperatures (thermal stability) higher than Z-TETRAOL (Comparative Example 12C) by” value is ≥ 120 °C.

In the case of `CCCCCCCCCCCCCCCCCCn1cc[n+](CCCCCCCCC[n+]2ccn(CCCCCCCCCCCCCCCCCC)c2)c1.O=S(=O)([N-]S(=O)(=O)C(F)(F)C(F)(F)C(F)(F)C(F)(F)F)C(F)(F)C(F)(F)C(F)(F)C(F)(F)F.O=S(=O)([N-]S(=O)(=O)C(F)(F)C(F)(F)C(F)(F)C(F)(F)F)C(F)(F)C(F)(F)C(F)(F)C(F)(F)F`, in data set [1], the “5%, 10%, 20% weight reduction temperatures (thermal stability) higher than perfluoropolyether Z-DOL (Comparative Example 11C) by” value is ≥ 170 °C and the “5%, 10%, 20% weight reduction temperatures (thermal stability) higher than Z-TETRAOL (Comparative Example 12C) by” value was ≥ 110 °C.

Take `C[n+]1ccn(CCC(F)(F)C(F)(F)C(F)(F)C(F)(F)C(F)(F)C(F)(F)C(F)(F)C(F)(F)F)c1.O=S(=O)([N-]S(=O)(=O)C(F)(F)C(F)(F)C(F)(F)C(F)(F)F)C(F)(F)C(F)(F)C(F)(F)C(F)(F)F`: in data set [1], the “5%, 10%, 20% weight reduction temperatures (thermal stability) higher than perfluoropolyether Z-DOL (Comparative Example 11C) by” value was ≥ 150 °C and the “5%, 10%, 20% weight reduction temperatures (thermal stability) higher than Z-TETRAOL (Comparative Example 12C) by” value was ≥ 90 °C.

Turning to `CCCCCCCCCCCCCCCCCC[n+]1ccn(CCC(F)(F)C(F)(F)C(F)(F)C(F)(F)C(F)(F)C(F)(F)C(F)(F)C(F)(F)F)c1.O=S(=O)([N-]S(=O)(=O)C(F)(F)C(F)(F)C(F)(F)C(F)(F)F)C(F)(F)C(F)(F)C(F)(F)C(F)(F)F`, in data set [1], the “5%, 10%, 20% weight reduction temperatures (thermal stability) higher than perfluoropolyether Z-DOL (Comparative Example 11C) by” value was ≥ 150 °C and the “5%, 10%, 20% weight reduction temperatures (thermal stability) higher than Z-TETRAOL (Comparative Example 12C) by” value is ≥ 90 °C.

As for `CCCCCCCCCCCCCCCCCC[n+]1ccn(CCCC)c1.O=S(=O)([N-]S(=O)(=O)C(F)(F)C(F)(F)C(F)(F)C(F)(F)F)C(F)(F)C(F)(F)C(F)(F)C(F)(F)F`, the “Thermal stability compared to perfluoropolyether Z-DOL or Z-TETRAOL” value in data set [1] is listed as “high”.

With `CCCCCCCCCCCCCCCCCCC1CCCCN2CCCN=C12.O=S(=O)(NS(=O)(=O)C(F)(F)C(F)(F)C(F)(F)C(F)(F)F)C(F)(F)C(F)(F)C(F)(F)C(F)(F)F`, in data set [1], the “Weight reduction temperature 5%” value was determined as 352.9 °C; the “Weight reduction temperature 10%” value came out at 378.2 °C; the “Weight reduction temperature 20%” value came to 396.7 °C; the “5%, 10%, 20% weight reduction temperatures (thermal stability) higher than perfluoropolyether Z-DOL (Comparative Example 11C) by” value is ≥ 100 °C. Also, the “5%, 10%, 20% weight reduction temperatures (thermal stability) higher than Z-TETRAOL (Comparative Example 12C) by” value in data set [1] was ≥ 50 °C.

With `CCCCCCCCCCCCCCCCCC[N+]1(CCCC)CCCC1.O=S(=O)([N-]S(=O)(=O)C(F)(F)C(F)(F)C(F)(F)C(F)(F)F)C(F)(F)C(F)(F)C(F)(F)C(F)(F)F`, the “Thermal stability improved compared with perfluoropolyether Z-DOL or Z-TETRAOL by” value in data set [1] was ≥ 90 °C.

In the case of `CCCCCCCCCCCCCCCCCCN1CCCC1.O=S(=O)(NS(=O)(=O)C(F)(F)C(F)(F)C(F)(F)C(F)(F)F)C(F)(F)C(F)(F)C(F)(F)C(F)(F)F`, the “Thermal stability improved compared with perfluoropolyether Z-DOL or Z-TETRAOL by” value in data set [1] was ≥ 70 °C.

Take `CCCCCCCCCCCCCCCCCCC1CCCCN2CCCN=C12.O=S1(=O)NS(=O)(=O)C(F)(F)C(F)(F)C1(F)F` (stereo not drawn): the “Thermal stability compared to perfluoropolyether Z-DOL or Z-TETRAOL” value in data set [1] was “high”.

As to `CCCCCCCCCCCCCCCCCCN1CCCN2CCCN=C12.O=S1(=O)NS(=O)(=O)C(F)(F)C(F)(F)C1(F)F`, the “Thermal stability compared to perfluoropolyether Z-DOL or Z-TETRAOL” value in data set [1] is “high”.

Turning to `CCCCCCCCCCCCCCCCCCN1CCCC1.O=S1(=O)NS(=O)(=O)C(F)(F)C(F)(F)C1(F)F`, in data set [1], the “Thermal stability compared to perfluoropolyether Z-DOL or Z-TETRAOL” value is “high”.

On to `CCCCCCCCCCCCCCCCCC[N+]1=C2CCCCCN2CCC1.O=S(=O)([O-])C(F)(F)F`, for which, in data set [1], the “Weight reduction temperature 5%” value turned out to be 319.2 °C; the “Weight reduction temperature 10%” value turned out to be 346.6 °C; the “Weight reduction temperature 20%” value turned out to be 389.0 °C; the “5%, 10%, 20% weight reduction temperatures (thermal stability) higher than perfluoropolyether Z-DOL (Comparative Example 11C) by” value is ≥ 140 °C. The “5%, 10%, 20% weight reduction temperatures (thermal stability) higher than Z-TETRAOL (Comparative Example 12C) by” value in data set [1] was ≥ 80 °C.

Turning to `CCCCCCCCCCCCCCCCCCC1CCCCN2CCCN=C12.O=S1(=O)NS(=O)(=O)C(F)(F)C(F)(F)C1(F)F` (stereo not drawn) [Comp. Ex. 1A, hexafluorocyclopropane-1,3-bis(sulfonyl)imide-6-octadecyl-1,8-diazabicyclo[5.4.0]-7-undecenium, reference compound], in data set [1], the “Weight reduction temperature 5%” value came out at 346.3 °C, the “Weight reduction temperature 10%” value was found to be 384.1 °C and the “Weight reduction temperature 20%” value was determined as 414.0 °C. In addition, the “Solubility to fluorine-based solvent” value in data set [2] was “less than 0.1% by mass”.

`CCCCCCCCCCCCCCCCCCn1cc[n+](CCCCC[n+]2ccn(CCCCCCCCCCCCCCCCCC)c2)c1.O=S(=O)([N-]S(=O)(=O)C(F)(F)C(F)(F)C(F)(F)C(F)(F)F)C(F)(F)C(F)(F)C(F)(F)C(F)(F)F.O=S(=O)([N-]S(=O)(=O)C(F)(F)C(F)(F)C(F)(F)C(F)(F)F)C(F)(F)C(F)(F)C(F)(F)C(F)(F)F` [Comp. Ex. 9A, 1,5-bis[bis(nonafluorobutanesulfonyl)imide-1-octadecylimidazolium]pentane, reference compound]: the “Solubility to fluorine-based solvent” value in data set [2] was “less than 0.1% by mass”.

Take `CCCCCCCCCCCCCCCCCC[N+]1=C2CCCCCN2CCC1.O=S(=O)([O-])C(F)(F)F` [Ex. 7A, trifluoromethanesulfonic acid-8-octadecyl-1,8-diazabicyclo[5.4.0]-7-undecenium]: the “Solubility to fluorine-based solvent” value in data set [2] was 0.5% by mass or greater; in data set [2] (listed as Example 7A) it was ≥ 0.5 % by mass.

Take `CCCCCCCCCCCCCCCCCC[n+]1ccn(CCC(F)(F)C(F)(F)C(F)(F)C(F)(F)C(F)(F)C(F)(F)C(F)(F)C(F)(F)F)c1.O=S(=O)([N-]S(=O)(=O)C(F)(F)C(F)(F)C(F)(F)C(F)(F)F)C(F)(F)C(F)(F)C(F)(F)C(F)(F)F` [Ex. 8A, bis(nonafluorobutanesulfonyl)imide-1-1′H,1′H,2′H,2′H-heptadecafluorodecyl-3-octadecylimidazolium]: in data set [1], the “Weight reduction temperature 5%” value turned out to be 335.8 °C, the “Weight reduction temperature 10%” value stood at 358.5 °C and the “Weight reduction temperature 20%” value was found to be 377.7 °C.

As to `CCCCCCCCCCCCCCCCCCn1cc[n+](CCC[n+]2ccn(CCCCCCCCCCCCCCCCCC)c2)c1.O=S(=O)([N-]S(=O)(=O)C(F)(F)C(F)(F)C(F)(F)C(F)(F)F)C(F)(F)C(F)(F)C(F)(F)C(F)(F)F.O=S(=O)([N-]S(=O)(=O)C(F)(F)C(F)(F)C(F)(F)C(F)(F)F)C(F)(F)C(F)(F)C(F)(F)C(F)(F)F` [Ex. 11A], in data set [2], the “Solubility to fluorine-based solvent” value is 0.5% by mass or greater.

Take “heptadecafluorooctanesulfonic acid-6-octadecyl-1,8-diazabicyclo[5.4.0]-7-undecenium”: in data set [1], the “Thermal stability compared to perfluoropolyether Z-DOL or Z-TETRAOL” value is recorded as “high”, the “Weight reduction temperature 5%” value amounted to 361.9 °C, the “Weight reduction temperature 10%” value is 382.7 °C and the “Weight reduction temperature 20%” value came out at 403.5 °C.

Regarding “heptadecafluorooctanesulfonic acid-6-octadecyl-1,8-diazabicyclo[5.4.0]-7-undecenium [Comp. Ex. 2A, reference compound]”, in data set [2], the “Solubility to fluorine-based solvent” value is recorded as “less than 0.1% by mass”.

Take “heptadecafluorooctanesulfonic acid-7-octadecyl-1,5,7-triazabicyclo[4.4.0]-5-decenium”: in data set [1], the “Thermal stability compared to perfluoropolyether Z-DOL or Z-TETRAOL” value was “high”, the “Weight reduction temperature 5%” value was determined as 356.1 °C, the “Weight reduction temperature 10%” value stood at 380.4 °C and the “Weight reduction temperature 20%” value is 401.5 °C.

As for “heptadecafluorooctanesulfonic acid-7-octadecyl-1,5,7-triazabicyclo[4.4.0]-5-decenium [Comp. Ex. 5A, reference compound]”, in data set [2], the “Dissolved or not in fluorine-based solvent” value (“Dissolved or not” below) is on record as “not dissolved” and the “Solubility to fluorine-based solvent” value is given as “less than 0.1% by mass”.

Take “nonafluorobutanesulfonic acid-N-octadecylpyrrolidinium”: in data set [1], the “Weight reduction temperature 5%” value was 339.4 °C, the “Weight reduction temperature 10%” value is 359.0 °C, the “Weight reduction temperature 20%” value turned out to be 377.3 °C and the “Thermal stability improved compared with perfluoropolyether Z-DOL or Z-TETRAOL by” value is ≥ 95 °C.

Consider “nonafluorobutanesulfonic acid-N-octadecylpyrrolidinium [Ex. 6A]”, for which, in data set [2], the “Dissolved or not” value is given as “could be dissolved”.

Consider “tris(trifluoromethanesulfonyl)methide-6-octadecyl-1,8-diazabicyclo[5.4.0]-7-undecenium”, for which, in data set [1], the “Thermal stability compared to perfluoropolyether Z-DOL or Z-TETRAOL” value is given as “high”, the “Weight reduction temperature 5%” value was determined as 354.9 °C, the “Weight reduction temperature 10%” value was 385.0 °C and the “Weight reduction temperature 20%” value amounted to 404.3 °C.

As for “tris(trifluoromethanesulfonyl)methide-6-octadecyl-1,8-diazabicyclo[5.4.0]-7-undecenium [Comp. Ex. 3A, reference compound]”, in data set [2], the “Dissolved or not” value was “not dissolved” and the “Solubility to fluorine-based solvent” value is “less than 0.1% by mass”.

Values taken from patent US20180237713A1, “Ionic Liquid, Lubricant, and Magnetic Recording Medium” (priority 2015, published 2018).
